Measured values as given in patent US6391595B1, “Transferase and amylase, process for producing the enzymes, use thereof, and gene coding for the same” (Kirin Beer Kabushiki Kaisha, priority 1994, dated 2002).

Key:
Assay type in all cases: biochemical
[1] = test system: amylase derived from the Sulfolobus solfataricus strain DSM 5833; test: Inhibitor of amylase (maltotriosyltrehalose-hydrolyzing activity); conditions: 5 mM CuSO4
Experimental: (§1) The influence of each substance listed in Table 15, such as an activating effect or inhibitory effect, was evaluated using similar activity-measuring method to that in Example II-1. Specifically, the listed substances were individually added together with the substrate to the same reaction system as that in the method for measuring maltotriosyltrehalose-hydrolyzing activity employed in Example II-1. […] As to the inhibitory effect by SDS, however, the enzymatic activity revived after SDS was removed by dialysis, ultrafiltration or the like.
(§2) Additionally, each of the purified enzymes obtained in Examples II-3 and II-4, i.e. derived from the Sulfolobus solfataricus strain DSM 5833 and the Sulfolobus acidocaldarius strain ATCC 33909, respectively, was also examined for the enzymatic characteristics in a similar manner.

[2] = test system: amylase derived from the Sulfolobus acidocaldarius strain ATCC 33909; test: as above; conditions: 5 mM CuSO4
Experimental: as §1, §2

[3] = test system: debranching enzyme derived from the Sulfolobus solfataricus strain KM1; test: Influence of activators and inhibitors on debranching enzyme activity
[4] = test system: transferase derived from the Sulfolobus acidocaldarius strain ATCC 33909; test: Inhibitor of transferase (glucosyltrehalose-producing activity); conditions: 5 mM CuSO4
Experimental: (§3) The influence of each substance listed in Table 8, such as an activating effect or inhibitory effect, was evaluated using similar activity-measuring method to that in Example I-1. Specifically, the listed substances were individually added together with the substrate to the same reaction system as that in the method for measuring glucosyltrehalose-producing activity employed in Example I-1.
(§4) Incidentally, each of the purified enzymes which were obtained in Examples I-3-I-5 and derived from the Sulfolobus solfataricus strain DSM 5833, the Sulfolobus acidocaldarius strain ATCC 33909, and the Acidianus brierleyi strain DSM 1651, respectively, was examined for enzymatic characteristics by using similar manner.

[5] = test system: transferase derived from the Acidianus brierleyi strain DSM 1651; test: as above; conditions: 5 mM CuSO4
Experimental: as §3, §4

[6] = test system: transferase derived from the Sulfolobus solfataricus strain DSM 5833; test: as above; conditions: 5 mM CuSO4
Experimental: as §3, §4

[7] = test system: transferase derived from the Sulfolobus solfataricus strain KM1; test: Influence of activators and inhibitors on glucosyltrehalose-producing activity
[8] = target: T1, amylase derived from the Sulfolobus solfataricus strain KM1 (Saccharolobus solfataricus, UniProt Q55088); test: biochemical
T1 construct: endogenous in cells; host or cells: Sulfolobus solfataricus strain KM1 cells
T1 sequence (Q55088 1-559): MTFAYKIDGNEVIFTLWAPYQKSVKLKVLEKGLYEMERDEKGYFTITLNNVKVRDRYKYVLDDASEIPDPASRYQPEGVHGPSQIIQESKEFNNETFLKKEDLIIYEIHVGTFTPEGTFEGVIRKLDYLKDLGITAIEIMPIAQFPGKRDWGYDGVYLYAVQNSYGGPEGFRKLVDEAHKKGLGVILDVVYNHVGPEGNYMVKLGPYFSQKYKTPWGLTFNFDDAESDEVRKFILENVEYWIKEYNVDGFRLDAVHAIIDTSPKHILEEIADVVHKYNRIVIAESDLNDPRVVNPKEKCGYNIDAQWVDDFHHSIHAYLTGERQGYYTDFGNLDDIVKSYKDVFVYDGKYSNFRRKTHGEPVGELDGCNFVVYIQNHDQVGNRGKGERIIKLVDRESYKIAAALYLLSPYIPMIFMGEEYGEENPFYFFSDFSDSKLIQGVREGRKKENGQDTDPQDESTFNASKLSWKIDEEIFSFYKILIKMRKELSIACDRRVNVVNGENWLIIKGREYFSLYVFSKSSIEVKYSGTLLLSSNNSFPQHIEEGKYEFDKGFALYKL

O=S(=O)([O-])[O-].[Cu+2] [CuSO4]
Inhibitor, inhibited [1]: 100% inhibited
Inhibitor, inhibited [2]: 100% inhibited
Residual activity ([3]; Concentration 5 mM): 0.0%
Activating or inhibitory effect ([3]; added with the substrate): inhibitory effects
Inhibitor, inhibited [4]: 100% inhibited
Inhibitor, inhibited [5]: 100% inhibited
Inhibitor, inhibited [6]: 100% inhibited
Inhibitor, inhibited ([7]; 5 mM CuSO4): 100% inhibited
Residual activity ([7]; Concentration 5 mM): 0.0%
Activating or inhibitory effect ([7]; added with the substrate): inhibitory effects
Inhibitor, inhibited ([8]; 5 mM CuSO4): 100% inhibited
Residual activity ([8]; Concentration 5 mM): 0%
Activating or inhibitory effect ([8]; added with the substrate): inhibitory effects
